Laboratory results from patent publication US4307100A (priority 1978, dated 1981).

Tests used:
tubulin [1] = experiment: Inhibition of the polymerisation of tubulin (UV, 350 nm); assay type: biochemical, pigs; conditions: for I50/I50 vinblastine: tartrates, tubulin concentration ~ 2 mg/ml, ratio to vinblastine
Description: (§1) The receiver of anti-tumoral indolic alkaloids of the vinblastine type is tubulin.
(§2) It is readily extracted from pigs' brains where it preresents 10% of the soluble proteins.
(§3) The polymerisation of tubulin into microtubules may readily be followed by means of a UV spectrophotometer observing at 350 nm. The maximum polymerisation velocity is thus determined; it is reduced by the addition of inhibitors of the vinblastine type and a concentration, I50, reducing the polymerisation velocity by half is obtained for each substance tested. A second effect of these products is taken into consideration: with higher doses, after complete inhibition of polymerisation, spiralisation of the tubulin is observed (verified by electron microscopy) and a new concentration, S50, corresponding to the appearance of 50% of the phenomenon is determined.
(§4) The results of each product are always compared with those of the vinblastine used as reference.
(§5) The results of the interaction tests with
(§6) tubulin carried out on the tartrates are summarised
(§7) in the following Table (tubulin concentration
(a) I50 : concentration of the product inhibiting 50% of the velocit
of polymerisation of the tubulin. I50 vinblastine = 2,10^-6.

tubulin [2] = experiment: Spiralisation of tubulin (S50); assay type: biochemical, pigs; conditions: for S50/S50 vinblastine: tartrates, tubulin concentration ~ 2 mg/ml, ratio to vinblastine
Description: as §1, §2, §3, §4, §5, §6, §7
(b) S50 : concentration of the product required for inducing 50% of
the maximum spiralisation of the tubulin.

[3] = comparison value, cited from earlier work; for DL50: i.v.
P388 leukaemia = experiment: Activity in the P388 leukaemia test on mice; assay type: in vivo, mice (DBA/2 female); conditions: tartrate; for ratio of T and C (formula drawing 15): C = average life of treated, control group; for Mean survival period: control 10.5 ± 0.8
Description: Table II below exemplifies the results obtained with the compound of Example 1 in the form of its tartrate in the treatment of P388 leukaemia.
T=average life (in days) of the mice of the treated group
C=average life (in days) of the mice of the control group
Graft: P 388 (10^6 cell./mice ip)
(§8) Graft→treatment interval: 24 h.

L1210 leukaemia = experiment: Activity in the L1210 leukaemia test on mice; assay type: in vivo, mice (DBA/2 female); conditions: tartrate
Description: Table III below summarises the results obtained with the compound of Example 1 in the form of its tartrate in the treatment of L1210 leukaemia:
as §8
Conc. 0.5 and 1 mg/ml in physiological serum.

[4] = Toxicity of the product of Example 1 in tartrate form, single dose, mortality over 35 days; assay type: in vivo, DBA/2 female mice; conditions: for Distribution of mortality, 1: column 1 (day); for Distribution of mortality, 6: column 6 (day); for Distribution of mortality, 3: column 3 (day)
Description: A single dose of the test product is intraperitoneally administered to DBA/2 .female. mice and the mortality rate studied over a period of 35 days.

leukaemia studied = experiment: Leukaemia tests on mice, overall conclusion; assay type: in vivo; conditions: in words, compared with vincristine and vinblastine
Description: (2) Activity in the P388 leukaemia test on mice
(3) Activity in the L1210 leukaemia test on mice

For `CCC12CN3Cc4c([nH]c5ccccc45)[C@@](C(=O)OC)(c4cc5c(cc4OC)N(C=O)[C@H]4[C@@](O)(C(=O)OC)[C@H](OC(C)=O)[C@]6(CC)C=CCN7CC[C@]54[C@@H]76)C[C@@H](C3)C1O2` (stereo partly shown) [5'-nor-Na-desmethyl Na-formyl leurosine], the I50/I50 vinblastine (tubulin [1]) was 2.77 and the S50/S50 vinblastine (tubulin [2]) was 2.5.

Work on `CCC1=C[C@@H]2CN(C1)Cc1c([nH]c3ccccc13)[C@@](C(=O)OC)(c1cc3c(cc1OC)N(C=O)[C@H]1[C@@](O)(C(=O)OC)[C@H](OC(C)=O)[C@]4(CC)C=CCN5CC[C@]31[C@@H]54)C2` [5'-noranhydrovincristine] yielded an I50/I50 vinblastine (tubulin [1]) of 0.8 and an S50/S50 vinblastine (tubulin [2]) of 0.66.

In the case of `CC[C@]1(O)C[C@@H]2CN(CCc3c([nH]c4ccccc34)[C@@](C(=O)OC)(c3cc4c(cc3OC)N(C)[C@H]3[C@@](O)(C(=O)OC)[C@H](OC(C)=O)[C@]5(CC)C=CCN6CC[C@]43[C@@H]65)C2)C1` [vinblastine, reference compound], the IC50 (tubulin [1]; reference vinblastine, unit inferred, read-out: I50: concentration of the product inhibiting 50% of the velocity of polymerisation of the tubulin (converted)) is listed as […] and the DL50 [3] is listed as 17 mg/kg.

With `CCC1=C[C@@H]2CN(C1)Cc1c([nH]c3ccccc13)[C@@](C(=O)OC)(c1cc3c(c(Cl)c1OC)N(C)[C@H]1[C@@](O)(C(=O)OC)[C@H](OC(C)=O)[C@]4(CC)C=CCN5CC[C@]31[C@@H]54)C2` [12-chloro-5'-noranhydrovinblastine] the I50/I50 vinblastine (tubulin [1]) was 13.

`CCC1=C[C@@H]2CN(CCc3c([nH]c4ccccc34)[C@@](C(=O)OC)(c3cc4c(cc3OC)N(C=O)[C@H]3[C@@](O)(C(=O)OC)[C@H](OC(C)=O)[C@]5(CC)C=CCN6CC[C@]43[C@@H]65)C2)C1` [anhydrovincristine, reference compound] gave an I50/I50 vinblastine (tubulin [1]) of 1.8 and an S50/S50 vinblastine (tubulin [2]) of 1.5.

In the case of `CC[C@]1(O)C[C@H]2CN(CCc3c([nH]c4ccccc34)[C@@](C(=O)OC)(c3cc4c(cc3OC)N(C=O)[C@H]3[C@@](O)(C(=O)OC)[C@H](OC(C)=O)[C@]5(CC)C=CCN6CC[C@]43[C@@H]65)C2)C1` [vincristine], the DL10 ([3]; route not given) is listed as 3 mg/kg and the DL50 [3] is listed as 2 mg/kg.

For `CCC12CN3Cc4c([nH]c5ccccc45)[C@@](C(=O)OC)(c4cc5c(cc4OC)N(C)[C@H]4[C@@](O)(C(=O)OC)[C@H](OC(C)=O)[C@]6(CC)C=CCN7CC[C@]54[C@@H]76)C[C@@H](C3)C1O2` (stereo partly shown) [5'-norleurosine], the I50/I50 vinblastine (tubulin [1]) was 1.0 and the S50/S50 vinblastine (tubulin [2]) was 3.

For `CCC1=C[C@@H]2CN(C1)Cc1c([nH]c3ccccc13)[C@@](C(=O)OC)(c1cc3c(cc1OC)N(C)[C@H]1[C@@](O)(C(=O)OC)[C@H](OC(C)=O)[C@]4(CC)C=CCN5CC[C@]31[C@@H]54)C2` [5'-noranhydrovinblastine], the “activity in regard to the inhibition of polymerisation” value (tubulin [1]; in words, compared with vinblastine) was “activity similar to vinblastine”, the I50/I50 vinblastine (tubulin [1]) was 0.7 and the “"spiralising" activity” value (tubulin [2]; in words) was “does not have any "spiralising" activity”. The S50/S50 vinblastine (tubulin [2]) was 0.8-1.0, the “I.L.S. (formula drawing 14)” value (P388 leukaemia; 5 mg/kg i.p.) was 29.5 and the “ratio of T and C (formula drawing 15)” value (P388 leukaemia; 5 mg/kg i.p.) was 129.5. The “Mean survival period” value (P388 leukaemia; 5 mg/kg i.p.) was 13.6 ± 0.8 days, the “I.L.S. (formula drawing 14)” value (P388 leukaemia; 10 mg/kg i.p.) was 70.5 and the “ratio of T and C (formula drawing 15)” value (P388 leukaemia; 10 mg/kg i.p.) was 170.5. For the same compound, the “Mean survival period” value (P388 leukaemia; 10 mg/kg i.p.) was 17.9 ± 0.9 days, the “I.L.S. (formula drawing 14)” value (P388 leukaemia; 25 mg/kg i.p.) was at least 131.4 and the “ratio of T and C (formula drawing 15)” value (P388 leukaemia; 25 mg/kg i.p.) was at least 231.4. The “Mean survival period” value (P388 leukaemia; 25 mg/kg i.p.) was at least 24.3 days, the “I.L.S. (formula drawing 16)” value (L1210 leukaemia; 5 mg/kg i.p.) was 40 and the “ratio (formula drawing 17)” value (L1210 leukaemia; 5 mg/kg i.p.) was 140. The “Mean survival period” value (L1210 leukaemia; 5 mg/kg i.p., control 8.6 ± 0.4) was 12.0 ± 0.9 days, the “I.L.S. (formula drawing 16)” value (L1210 leukaemia; 10 mg/kg i.p., first line) was 57 and the “Mean survival period” value (L1210 leukaemia; 10 mg/kg i.p., first line, control 8.6 ± 0.4) was 13.5 ± 0.9 days. The “ratio (formula drawing 17)” value (L1210 leukaemia; 10 mg/kg i.p., first value) was 157, the “I.L.S. (formula drawing 16)” value (L1210 leukaemia; 10 mg/kg i.p., second line) was 50 and the “Mean survival period” value (L1210 leukaemia; 10 mg/kg i.p., second line, control 8.6 ± 0.7) was 12.9 ± 1.3 days. The “ratio (formula drawing 17)” value (L1210 leukaemia; 10 mg/kg i.p., second value) was 150, the “I.L.S. (formula drawing 16)” value (L1210 leukaemia; 25 mg/kg i.p., first line) was 65 and the “Mean survival period” value (L1210 leukaemia; 25 mg/kg i.p., first line, control 8.6 ± 0.4) was 14.2 days. The “ratio (formula drawing 17)” value (L1210 leukaemia; 25 mg/kg i.p., first value) was 165, the “I.L.S. (formula drawing 16)” value (L1210 leukaemia; 25 mg/kg i.p., second line) was 57 and the “Mean survival period” value (L1210 leukaemia; 25 mg/kg i.p., second line, control 8.6 ± 0.7) was 13.5 days. For the same compound, the “ratio (formula drawing 17)” value (L1210 leukaemia; 25 mg/kg i.p., second value) was 157, the “Distribution of mortality, 1” value ([4]; 50 mg/kg i.p.) was 1 and the “Distribution of mortality, 4” value ([4]; 50 mg/kg i.p., column 4 (day)) was 1. The “Distribution of mortality, 6” value ([4]; 50 mg/kg i.p.) was 1, the “Distribution of mortality, 9” value ([4]; 50 mg/kg i.p., column 9 (day)) was 1 and the “Mortality over 35 days” value ([4]; 50 mg/kg single i.p. dose, tartrate, 5 mice) was 4/5. For the same compound, the “Distribution of mortality, 1” value ([4]; 75 mg/kg i.p.) was 3, the “Distribution of mortality, 3” value ([4]; 75 mg/kg i.p.) was 1 and the “Distribution of mortality, 6” value ([4]; 75 mg/kg i.p.) was 1. For the same compound, the “Distribution of mortality, 3” value ([4]; 100 mg/kg i.p.) was 3, the “Mortality over 35 days” value ([4]; 100 mg/kg single i.p. dose, tartrate, 3 mice) was 3/3 and the “toxicity compared with vincristine and vinblastine” value ([4]; in words) was “far less toxic”. For the same compound, the mortality at 840 h ([4]; mouse, in vivo, ip, 25 mg/kg single i.p. dose, tartrate, 5 mice) was 0%, the DL0 ([4]; single i.p. dose, tartrate, DBA/2 female mice, 35 days) was 25 mg/kg and the “activity on the leukaemia studied” value (leukaemia studied) was “more active than vincristine and vinblastine”.
